For seven molecules, GI50 and TGI results are on record in PubChem BioAssay (NCI).

Several values for one entry are separate records, joined by “and”; a condition that tells them apart may be missing. Equal values may be shown once.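 Grown in 96-well plates, cells were treated for 48 hours with each compound at five concentrations. Insufficient inhibition: endpoint recorded as highest concentration tested. GI50 = concentration required for 50% inhibition of growth. TGI: total growth inhibition.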 Where only a bound is given, the exact number is not on record here.

Test in all cases: DTP human tumour cell line panel, 48 h
Assay [1] concerns NCI-H460 lung.
Assay [2] relates to NCI/ADR-RES ovarian.
For assay [3], the system named is SNB-75 CNS.
Assay [4] deals with SR leukemia.
The subject of assay [5] is SK-OV-3 ovarian.
The subject of assay [6] is SK-MEL-28 melanoma.
For assay [7], the system named is HT29 colon.
In assay [8] the test system is CAKI-1 renal.
Assay [9] has as its system PC-3 prostate.
Assay [10] has as its system OVCAR-3 ovarian.

For `COc1ccc(-c2cc3cccc(OC)c3c(=O)o2)cc1OC`, the GI50 is 31.1 µM in [1]; 40.3 µM in assay [2]; 53.1 µM in [3]; 0.436 µM in [4]; 46.2 µM in [5]; 44.4 µM in [6]. The GI50 was 8.49 µM in assay [7], 0.094 µM in assay [8], 55.9 µM in [9] and 43.4 µM in assay [10]. The TGI in assay [1], in assay [2], in assay [3], in [4], in [5] and in [6] was above 100 µM throughout. Further, the TGI was above 100 µM in [7], 32 µM in [8], above 100 µM in assay [9] and above 100 µM in [10].

As to `CS(=O)(=O)c1nccc(-c2c(-c3cccc(OCc4ccc(F)cc4)c3)nc3sccn23)n1`, the GI50 in assay [1] is 56.7 µM; in assay [2], 43.2 µM; in assay [3], above 39.5 µM; in assay [4], 5.45 µM; in assay [5] it was 47.4 µM; in assay [6] it was 23.8 µM. In addition, the GI50 in assay [7] is 53.9 µM; in assay [8], 3.41 µM; in [9] it was 4.62 µM; in assay [10], 19 µM. Besides, the concentration for total growth inhibition (TGI) in [1] is above 100 µM; in [2] it was above 100 µM; in assay [3], above 83.1 µM; in [4], above 100 µM; in assay [5], above 100 µM; in assay [6], above 100 µM. Also, the total growth inhibition concentration (TGI) is above 100 µM in [7], above 100 µM in assay [8], above 28 µM in assay [9] and above 100 µM in assay [10].

For the molecule `COC1/C=C/O[C@@]2(C)Oc3c(C)c(O)c4c(O)c(cc(O)c4c3C2=O)NC(=O)/C(C)=C\C=C\[C@H](C)C(O)[C@@H](C)[C@@H](O)[C@@H](C)[C@H](OC(C)=O)[C@@H]1C` (stereo partly specified), the GI50 in assay [1] is 18.8 µM and 32.7 µM; in [2] it was 24 µM; in assay [3], 18.1 µM; in assay [4], 3.92 µM; in assay [7] it was 11.6 µM; in assay [8], 16.9 µM. The GI50 in assay [9] is 7.74 µM; in assay [10] it was 2.6 µM and 8.56 µM. For the same molecule, the total growth inhibition concentration (TGI) is 37 µM and 79.8 µM in assay [1]; 59.7 µM and 86 µM in assay [2]; 32.3 µM and 119 µM in assay [3]; 20.6 µM and 42.7 µM in [4]; 211 µM in assay [5]; 52 µM and 57.3 µM in assay [6]. Also, the TGI in assay [7] was 24.3 µM and 34.5 µM; in [8], 30.8 µM and 98.6 µM; in [9], 20.4 µM and 34 µM; in assay [10] it was 15.1 µM and 22.9 µM.

Regarding `Cc1nc2sc(C(=O)Nc3cccc4ccccc34)c(N)c2cc1C(C)O` (stereo unspecified), the GI50 was 0.184 µM in assay [1]; 0.17 µM in [2]; 0.119 µM in assay [3]; 0.15 µM in [4]; 0.196 µM in [5]; 0.882 µM in [6]. The concentration for 50% growth inhibition (GI50) in assay [7] was 0.191 µM; in assay [8] it was 0.192 µM; in [9], 0.285 µM; in [10] it was 0.155 µM. The TGI is 9.91 µM in assay [1]; above 50 µM in [3]; above 50 µM in assay [4]; above 50 µM in [5]; above 50 µM in assay [6]; 14.9 µM in [7]. In addition, the concentration for total growth inhibition (TGI) in assay [8] and in [9] was above 50 µM each time.

On to `Cn1cc(-c2cc3c(Nc4ccc(CC(=O)Nc5cc(C(C)(C)C)on5)cc4)ncnc3[nH]2)cn1`, for which the GI50 in [1] was 1.04 µM and 1.26 µM; in assay [2] it was 16.1 µM and 13.1 µM; in [3], 0.655 µM and 0.133 µM; in [4] it was 0.328 µM and 0.324 µM; in [5], 1.43 µM and 2.02 µM; in assay [6], 0.804 µM and 0.508 µM. The GI50 is 1.1 µM and 1.11 µM in assay [7]; 1.25 µM and 1.1 µM in assay [8]; 1.59 µM and 0.612 µM in [9]; 0.496 µM and 0.36 µM in assay [10]. Besides, the total growth inhibition concentration (TGI) was 3.65 µM and 6.22 µM in [1]; above 100 µM in assay [2]; 1.78 µM and 2.47 µM in assay [3]; above 53.7 µM in [4]; 6.01 µM and 6.84 µM in assay [5]; 3.58 µM and 3 µM in [6]. Further, the TGI in assay [7] was 6.95 µM and 9.63 µM; in assay [8], 7.09 µM and 6.93 µM; in assay [9], 11.3 µM and 3.58 µM; in assay [10], 2.48 µM and 2.54 µM.

As to `O=C1c2ccn(CCCCN3CCOCC3)c2C(=O)c2c1c(O)c1ccccc1c2O`, the GI50 is 12.3 µM in assay [1]; 4.44 µM in [2]; above 100 µM in [3]; 4.55 µM in assay [4]; 16.2 µM in [5]; 25.8 µM in assay [6]. Also, the GI50 is 3.75 µM in assay [7], 5.94 µM in assay [8], 6.96 µM in [9] and 1.62 µM in assay [10]. For the same molecule, the TGI in [1] was 28.4 µM; in [2], 23.8 µM; in [3] it was above 100 µM; in assay [4], 33.6 µM; in assay [5], 55.4 µM; in [6], above 100 µM. For the same molecule, the TGI in assay [7] stood at 97 µM; in assay [8], 21 µM; in assay [9], 27.3 µM; in assay [10], 8.77 µM.

For the molecule `OCC1SC(n2cnc3cncnc32)C(O)C1O` (stereo unspecified), the GI50 in assay [1], in assay [2], in assay [3], in assay [4], in [5] and in [6] was above 100 µM throughout. Further, the GI50 in assay [7], in assay [8], in [9] and in assay [10] was above 100 µM in each case. Moreover, the concentration for total growth inhibition (TGI) in [1], in assay [2], in assay [3], in [4], in assay [5] and in [6] was above 100 µM each time. In addition, the TGI in assay [7], in assay [8], in assay [9] and in assay [10] was above 100 µM in each case.
